From patent US9636335B2, “Heteroaryl compounds as 5-HT4 receptor ligands” (Suven Life Sciences Ltd, priority 2011, dated 2017)

What was measured:
Male Wister rats = experiment: Object recognition task model; format: in vivo; conditions: p.o., rat
Procedure: (§1) The cognition enhancing properties of compounds of this invention were estimated by using this model.
Male Wister rats (230-280 grams) were used as experimental animals. Four animals were housed in each cage. […] Also the rats were habituated to individual arenas for 1 hour in the absence of any objects.
One group of 12 rats received vehicle (1 mL/Kg) orally and another set of animals received compound of the formula (I) either orally or i.p., before one hour of the familiar (T1) and choice trial (T2).
The experiment was carried out in a 50×50×50 cm open field made up of acrylic. In the familiarization phase, (T1), the rats were placed individually in the open field for 3 minutes, in which two identical objects (plastic bottles, 12.5 cm height×5.5 cm diameter) covered in yellow masking tape alone (a1 and a2) were positioned in two adjacent corners, 10 cms from the walls. After 24 hours of the (T1) trial for long-term memory test, the same rats were placed in the same arena as they were placed in T1 trial. Choice phase (T2) rats were allowed to explore the open field for 3 minutes in presence of one familiar object (a3) and one novel object (b) (Amber color glass bottle, 12 cm high and 5 cm in diameter). Familiar objects presented similar textures, colors and sizes. During the T1 and T2 trial, explorations of each object (defined as sniffing, licking, chewing or having moving vibrissae whilst directing the nose towards the object at a distance of less than 1 cm) were recorded separately by stopwatch. […] T1 is the total time spent exploring the familiar objects (a1+a2). T2 is the total time spent exploring the familiar object and novel object (a3+b).

[1] = biological target: recombinant human 5-HT4 receptor (Homo sapiens (Human), UniProt Q13639); experiment: Determination of EC50 values for 5-HT4 receptor (CHO cells, pCRE-Luc reporter); format: cell-based; conditions: CHO cells expressing human 5-HT4 receptor, luciferase activity, 4 hours incubation
Chain of recombinant human 5-HT4 receptor (Q13639 whole entry): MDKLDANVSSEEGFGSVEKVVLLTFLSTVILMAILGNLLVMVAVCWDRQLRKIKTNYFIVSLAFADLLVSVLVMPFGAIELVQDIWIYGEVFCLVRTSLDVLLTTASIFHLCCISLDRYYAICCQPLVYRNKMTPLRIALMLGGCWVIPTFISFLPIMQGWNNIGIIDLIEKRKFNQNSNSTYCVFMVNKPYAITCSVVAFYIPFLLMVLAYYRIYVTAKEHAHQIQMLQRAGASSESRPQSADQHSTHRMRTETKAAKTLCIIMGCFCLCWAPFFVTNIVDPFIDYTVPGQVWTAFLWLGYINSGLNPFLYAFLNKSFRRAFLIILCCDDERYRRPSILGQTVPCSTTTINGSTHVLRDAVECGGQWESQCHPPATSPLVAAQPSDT
Procedure: A stable CHO cell line expressing recombinant human 5-HT4 receptor and pCRE-Luc reporter system was used for cell-based assay. The assay offers a non-radioactive based approach to determine binding of a compound to GPCRs. In this specific assay, the level of intracellular cyclic AMP which is modulated by activation or inhibition of the receptor is measured. The recombinant cells harbor luciferase reporter gene under the control of cAMP response element.
The above cells were grown in 96 well clear bottom white plates in Hams F12 medium containing 10% fetal bovine serum (FBS). Prior to the addition of compounds or standard agonist, cells were serum starved overnight. Increasing concentrations of test compounds were added in OptiMEM medium to the cells. The incubation was continued at 37° C. in CO2 incubator for 4 hours. Medium was removed and cells were washed with phosphate buffered saline. The cells were lysed and luciferase activity was measured in a Luminometer. Luminescence units were plotted against the compound concentrations using Graphpad software.

[2] = Rodent brain penetration study; conditions: male, Wistar, rat, brain homogenate and plasma, po, 10 mg/kg
Procedure: Three animals were housed in each cage. Animals were given water and food ad libitum throughout the experiment, and maintained on a 12 hours light/dark cycle.
Brain penetration was determined in discrete manner in rats. […] After acclimatization the rats were grouped according to the weight in each group, 3 animals were kept in individual cage and allowed free access to food and water. At each time point (0.50, 1, and 2 hours) n=3 animals were used.
The compounds of formula (I) was suitably preformulated and administered orally at (free base equivalent) 10 mg/kg. Blood samples were removed via, cardiac puncture by using isoflurane anesthesia the animals were sacrificed to collect brain tissue. […] The concentrations of the NCE compound in plasma and Brain were determined using LC-MS/MS method.
Extent of brain-plasma ratio was calculated (Cb/Cp).

[3] = Rodent pharmacokinetic study; format: in vivo, Male Wister rats; conditions: plasma, Wistar/Male rat; for bioavailability: 10 mg/kg oral vs 5 mg/kg intravenous
Procedure: Three to five animals were housed in each cage. […] Animals were fasted over night before oral dosing (p.o) and food pellets were allowed 2 hours post dosing, whereas intravenous dosing food and water were provided as ad libitum. Three rats were dosed with compounds of formula (I) (10 mg/kg) orally and intravenously (05 mg/kg).
At each time point blood was collected through jugular vein and immediately replenish with an equivalent volume of normal saline from freely moving rats. Collected blood was transferred into a labeled eppendr off containing 10 μL of heparin as anticoagulant. Typically blood samples were collected as following time points: Pre dose, 0.08 (only i.v.), 0.25, 0.5, 1, 2, 4, 6, 8, and 24 hours post dose (n=3). Blood was centrifuged at 4000 rpm for 10 minutes. Plasma was prepared and stored frozen at −20° C. until analysis.
Pharmacokinetic parameters Cmax, Tmax, AUCt, T1/2 and Bioavailability were calculated by non-compartmental model using standard non-compartmental model by using WinNonLin 5.0.1 or Phoenix WinNonlin 6.2 version Software package.

rats = experiment: Radial arm maze, reversal of scopolamine induced amnesia; format: in vivo; conditions: p.o., rat
Source text: as §1

SMILES | Exploration time mean ± S.E.M, Familiar object (Male Wister rats; 1 mg/kg) | Exploration time mean ± S.E.M, Novel object (Male Wister rats; 1 mg/kg) | Inference (Male Wister rats; 1 mg/kg) | EC50 [1] | Kp [2] | AUC(0-t) ([3]; 5 mg/kg, intravenous (bolus)) | Cmax ([3]; 5 mg/kg, intravenous (bolus)) | Tmax ([3]; 5 mg/kg, intravenous (bolus)) | half-life ([3]; 5 mg/kg, intravenous (bolus)) | bioavailability [3] | AUC(0-t) ([3]; 10 mg/kg, oral (gavage)) | Cmax ([3]; 10 mg/kg, oral (gavage)) | Tmax ([3]; 10 mg/kg, oral (gavage)) | half-life ([3]; 10 mg/kg, oral (gavage)) | Reversal of Scopolamine Induced amnesia - Effective dose range (rats) | Exploration time mean ± S.E.M, Familiar object (Male Wister rats; 3 mg/kg) | Exploration time mean ± S.E.M, Novel object (Male Wister rats; 3 mg/kg) | Inference (Male Wister rats; 3 mg/kg)
Nc1c(Cl)cc(-c2nnc(C3CCN(C4CCC4)CC3)o2)c2c1CCCO2 [Example 14, 6-Chloro-8-[5-(1-cyclobutyl-piperidin-4-yl)-[1,3,4]oxadiazol-2-yl]-chroman-5-ylamine] | 5.06 ± 1.32 s | 12.68 ± 1.14 s | Active | 1.3 nM | 2.24 ± 0.09 | 773 ± 45 ng·h/mL | 783 ± 124 ng/mL | 4.8 min | 73.2 ± 15.6 min | 42 ± 10% | 645 ± 136 ng·h/mL | 513 ± 125 ng/mL | 15 min | 57.6 ± 6.6 min | 1-10 mg/kg, p.o. |  |  | 
Nc1c(Cl)cc(-c2nnc(CCCN3CCCCC3)o2)c2c1CCCO2.O=C(O)C(O)C(O)C(=O)O [Example 20, 6-Chloro-8-[5-(3-piperidin-1-yl-propyl)-[1,3,4]oxadiazol-2-yl]-chroman-5-ylamine tartarate salt] |  |  |  | 104 nM | 0.5 ± 0.07 | 867 ± 173 ng·h/mL | 976 ± 305 ng/mL | 4.8 min | 48 ± 3.6 min | 46 ± 9% | 790 ± 153 ng·h/mL | 602 ± 35 ng/mL | 15 min | 61.8 ± 1.2 min |  | 4.69 ± 0.79 s | 11.04 ± 1.33 s | Active
